Assay results as given in patent US20210371817A1, “COMPOSITIONS AND METHODS FOR PRECISE PATTERNING OF POSTERIOR NEUROECTODERM FROM HUMAN PLURIPOTENT STEM CELLS” (WISCONSIN ALUMNI RESEARCH FOUNDATION, priority 2013, published 2021).

Tested on: H9 hESCs
Experiment: HOX, OTX2 and T gene expression by RT-PCR/qPCR during hESC differentiation with morphogens
Assay type: cell-based, human
Settings: neuromesodermal state
Description: hPSC differentiation. hPSCs were washed once with phosphate-buffered saline (PBS; Invitrogen), dissociated with ACCUTASE® (Invitrogen) for 3 min, and collected by centrifugation. hPSCs were then seeded onto VTN-NC-coated plates in E8 medium containing 10 μM ROCK inhibitor (Y27632; R&D Systems). Seeding density was 2×10^5 cells/cm^2. The following day, the cells were switched to E6 medium (same composition as E8 medium minus FGF2 and TGFβ 1). Morphogen treatments were then carried out according to the figures in the text. Cells were supplemented with FGF8b (100-200 ng/ml; Peprotech), CHIR99021 (3-6 μM; Tocris), and/or RA (3 μM; Sigma).
Reverse transcriptase polymerase chain reaction (RT-PCR). Total RNA was extracted from cells using TRIZOL® reagent (Invitrogen) according to the manufacturer's instructions. RNA was then subjected to reverse-transcription using a Thermoscript™ RT-PCR kit (Invitrogen) in a 20 μL mixture according to the manufacturer's instructions. The resulting cDNA was then amplified in a 25 μL mixture containing 10×PCR buffer, 0.2 mM dNTP, 1.5 mM MgCl2, 0.5 μM of each primer, and 1 U Taq DNA polymerase (Invitrogen). Amplified products were resolved on 2% agarose gels containing SYBR Safe (Invitrogen) and visualized with a VersaDoc (BioRad). Primer sequences can be found in Table 3. All amplifications were carried out for 35 cycles. HOXC5 and HOXC6 were amplified at 58° C., all others with an annealing temperature of 55° C.
Propagation and differentiation of neuromesodermal progenitors. H9 hESCs (passage 25-45), H9 ishcat2 hESCs (passage 33-43), and IMR90-4 iPSCs (passage 31-40) were maintained in E8 medium on MATRIGEL© (BD Biosciences) as previously described. To initiate differentiation, hPSCs were passaged with ACCUTASE© (Life Technologies) onto vitronectin (VTN-NC)-coated plates at a density of 1×10^5 cells/cm^2 as previously described. The following day, cells were changed to E6 medium. 24 h later, cells were changed to E6 medium containing 200 ng/ml FGF8b (Peprotech). 24 h later, cells were washed once with 2 ml PBS, treated with ACCUTASE® for 2 min, and removed from the surface by gentle pipetting. After collection by centrifugation, cells were gently resuspended in E6 medium containing 200 ng/ml FGF8b and CHIR99021 (CHIR, concentration varied depending on cell line; Tocris) and re-seeded on VTN-NC-coated plates at a density of 1.5×10^5 cells/cm^2. Medium was not changed until 48 h after passaging. This passaging process was repeated on day 3 of CHIR 99021 treatment (re-seed density of 1.2×10^5 cells/cm^2) if extended neuromesodermal propagation was required, and 50 ng/ml GDF11 (Peprotech) was added on day 4 of CHIR 99021 treatment to initiate lumbar patterning. Cells were changed to E6 medium containing 1 μM retinoic acid (RA; Sigma) to facilitate neural transition.
qPCR. Total RNA was extracted from cultured cells using TRIZOL® (Life Technologies) according to the manufacturer's instructions. After isolation, 2-5 μg of total RNA was immediately subjected to reverse transcription using the Thermoscript™ RT-PCR kit (Life Technologies) in a 20 μL reaction according to the manufacturer's instructions. […] For all experiments, ΔΔCt values for each gene were calculated relative to ribosomal protein S18 (RPS18) RNA levels and converted to fold difference assuming 100% primer efficiency, then normalized to maximum expression levels as indicated in each figure legend. […]

With “GDF11: Growth differentiation factor 11, a TGFβ family member” the “Expression of hindbrain/cervical genes HOXA4, HOXB4, HOXC6” value (data not shown) was “did not repress” and the “Activation of lumbar and sacral HOX paralogs” value (qPCR, GDF11 50 ng/ml) was “necessary for robust activation of lumbar (HOX10) and sacral (HOX11) paralogs”.
